# Measurements: patent US12233081B2, “Hygromycin a compounds and methods of treating spirochete diseases” (priority 2018, dated 2025)
# Like-named read-outs stand apart in the source and are kept apart here.
# Experiments:
# [1] = test system: Treponema pallidum; assay: microbroth dilution MIC; format: cell-based
# [2] = test system: B. burgdorferi N40; assay: C3H mice infected with Borrelia burgdorferi, cell counts in skin tissue; format: in vivo; conditions: for # of B. burgdorferi cells in 100 mg skin tissue: 5 days of dosing
# Experimental: C3H mice (Charles River Laboratories) are used in classical Lyme disease infection model. Mice were rested for more than 1 day after delivery before infected with 10^5 B. burgdorferi N40 cells by subcutaneous injection. Infection was established for 3 weeks. 100 μl of saline, ceftriaxone or hygromycin A was administered by IP injection. Compounds of the invention can also be tested for efficacy as described herein.
# Ceftriaxone (USP grade) was purchased from Sigma-Aldrich. Saline was purchased from Baxter Healthcare. Ceftriaxone powder was dissolved into saline to 31.2 mg/ml solution. Hygromycin A stock solution at 200 mg/ml was diluted into saline to make 50 mg/ml (250 mg/kg), 15 mg/ml (75 mg/kg), 14 mg/ml (70 mg/kg), 10 mg/ml (50 mg/kg) and 5 mg/ml (25 mg/kg) solutions.
# In the B. burgdorferi mice infection model, skin is the tissue with highest bacterial burden. After sacrificing mice 2 days after 5 days of dosing, we took 100 mg skin tissue from mouse ear, homogenized the tissue and plated on BSK-II semi-agar plates for cell number counts. No colony appearing on the plates is considered as clearance of the infection.
# [3] = test system: gut microbiome; conditions: mouse, in vivo
compound,measurement,setting,value
CC(=O)[C@H]1O[C@@H](Oc2ccc(/C=C(\C)C(=O)N[C@@H]3[C@H](O)[C@@H](O)[C@H]4OCO[C@H]4[C@@H]3O)cc2O)[C@@H](O)[C@@H]1O [Hygromycin A],MIC,[1],0.03 µg/mL
same,# of B. burgdorferi cells in 100 mg skin tissue,[2]; 25 mg/kg Oral gavage,<1
same,# of B. burgdorferi cells in 100 mg skin tissue,[2]; 50 mg/kg Oral gavage,<1
same,# of B. burgdorferi cells in 100 mg skin tissue,[2]; 70 mg/kg Oral gavage,<1
same,# of B. burgdorferi cells in 100 mg skin tissue,[2]; 75 mg/kg IP injection,<1
same,# of B. burgdorferi cells in 100 mg skin tissue,[2]; 250 mg/kg Oral gavage,<1
same,clearance of the Borrelia burgdorferi infection,"[2]; 5 days of treatment, both IP injection and oral gavage",cleared the Borrelia burgdorferi infection
same,Camobacteriaceae change in percent relative abundance,"[3]; C3H, ip, 50 mg/kg, 5 days",−0.001%
same,Chitinophagaceae change in percent relative abundance,"[3]; C3H, ip, 50 mg/kg, 5 days",0.000%
same,Christensenellaceae change in percent relative abundance,"[3]; C3H, ip, 50 mg/kg, 5 days",0.000%
same,Clostridiaceae change in percent relative abundance,"[3]; C3H, ip, 50 mg/kg, 5 days",−0.066%
same,Clostridiales change in percent relative abundance,"[3]; C3H, ip, 50 mg/kg, 5 days",−0.099%
same,Clostridiales family xi. incertae sedis change in percent relative abundance,"[3]; C3H, ip, 50 mg/kg, 5 days",−0.047%
same,Clostridiales family xiii. incertae sedis change in percent relative abundance,"[3]; C3H, ip, 50 mg/kg, 5 days",−0.013%
same,Coriobacteriaceae change in percent relative abundance,"[3]; C3H, ip, 50 mg/kg, 5 days",0.014%
same,overall disruption to the gut microbiome,[3],considerably less severe
same,Acholeplasmataceae change in percent relative abundance,"[3]; ip, 50 mg/kg",0.003%
same,Aerococcaceae change in percent relative abundance,"[3]; ip, 50 mg/kg",0.001%
same,Anaerolineaceae change in percent relative abundance,"[3]; ip, 50 mg/kg",0.000%
same,Anaeroplasmataceae change in percent relative abundance,"[3]; ip, 50 mg/kg",−0.007%
same,Anaplasmataceae change in percent relative abundance,"[3]; ip, 50 mg/kg",0.000%
same,Aspergillaceae change in percent relative abundance,"[3]; ip, 50 mg/kg",0.000%
same,Asteraceae change in percent relative abundance,"[3]; ip, 50 mg/kg",0.001%
same,Bacillaceae change in percent relative abundance,"[3]; ip, 50 mg/kg",−0.021%
same,Bacillales change in percent relative abundance,"[3]; ip, 50 mg/kg",−0.108%
same,Bacteroidaceae change in percent relative abundance,"[3]; ip, 50 mg/kg",−14.397%
same,Bifidobacteriaceae change in percent relative abundance,"[3]; ip, 50 mg/kg",0.000%
same,Candidatus saccharibacteria change in percent relative abundance,"[3]; ip, 50 mg/kg",−0.022%
same,Corynebacteriaceae change in percent relative abundance,"[3]; ip, 50 mg/kg",0.000%
same,Cytophagaceae change in percent relative abundance,"[3]; ip, 50 mg/kg",0.000%
same,Deferribacteraceae change in percent relative abundance,"[3]; ip, 50 mg/kg",0.368%
same,Defluviitaleaceae change in percent relative abundance,"[3]; ip, 50 mg/kg",−0.001%
same,Desulfobacteraceae change in percent relative abundance,"[3]; ip, 50 mg/kg",0.000%
same,Enterobacteriaceae change in percent relative abundance,"[3]; ip, 50 mg/kg",1.250%
same,Enterococcaceae change in percent relative abundance,"[3]; ip, 50 mg/kg",0.036%
same,Erysipelotrichaceae change in percent relative abundance,"[3]; ip, 50 mg/kg",5.307%
same,Eubacteriaceae change in percent relative abundance,"[3]; ip, 50 mg/kg",0.037%
same,Fabaceae change in percent relative abundance,"[3]; ip, 50 mg/kg",0.000%
same,Flavobacteriaceae change in percent relative abundance,"[3]; ip, 50 mg/kg",0.000%
same,Fusobacteriaceae change in percent relative abundance,"[3]; ip, 50 mg/kg",0.000%
same,Gammaproteobacteria change in percent relative abundance,"[3]; ip, 50 mg/kg",−0.020%
same,Gloeobacteraceae change in percent relative abundance,"[3]; ip, 50 mg/kg",−0.020%
same,Gracilibacteraceae change in percent relative abundance,"[3]; ip, 50 mg/kg",−0.112%
same,Halomonadaceae change in percent relative abundance,"[3]; ip, 50 mg/kg",0.000%
same,Hylidae change in percent relative abundance,"[3]; ip, 50 mg/kg",0.000%
same,Kopriimonadaceae change in percent relative abundance,"[3]; ip, 50 mg/kg",0.000%
same,Lachnospiraceae change in percent relative abundance,"[3]; ip, 50 mg/kg",1.241%
same,Lactobacillaceae change in percent relative abundance,"[3]; ip, 50 mg/kg",9.667%
same,Leuconostocaceae change in percent relative abundance,"[3]; ip, 50 mg/kg",−0.001%
same,Methylobacteriaceae change in percent relative abundance,"[3]; ip, 50 mg/kg",0.000%
same,Microbacteriaceae change in percent relative abundance,"[3]; ip, 50 mg/kg",0.000%
same,Mucoraceae change in percent relative abundance,"[3]; ip, 50 mg/kg",0.000%
same,Nostocaceae change in percent relative abundance,"[3]; ip, 50 mg/kg",0.000%
same,Onagraceae change in percent relative abundance,"[3]; ip, 50 mg/kg",0.000%
same,Oscillatoriales change in percent relative abundance,"[3]; ip, 50 mg/kg",0.000%
same,Oscillospiraceae change in percent relative abundance,"[3]; ip, 50 mg/kg",−0.009%
same,Paenibacillaceae change in percent relative abundance,"[3]; ip, 50 mg/kg",−0.001%
same,Pasteurellaceae change in percent relative abundance,"[3]; ip, 50 mg/kg",0.000%
same,Pelobacteraceae change in percent relative abundance,"[3]; ip, 50 mg/kg",0.000%
same,Peptococcaceae change in percent relative abundance,"[3]; ip, 50 mg/kg",−0.885%
same,Peptoniphilaceae change in percent relative abundance,"[3]; ip, 50 mg/kg",0.000%
same,Peptostreptococcaceae change in percent relative abundance,"[3]; ip, 50 mg/kg",−0.194%
same,Physalacriaceae change in percent relative abundance,"[3]; ip, 50 mg/kg",0.000%
same,Poaceae change in percent relative abundance,"[3]; ip, 50 mg/kg",0.019%
same,Polyangiaceae change in percent relative abundance,"[3]; ip, 50 mg/kg",0.000%
same,Porphyromonadaceae change in percent relative abundance,"[3]; ip, 50 mg/kg",−0.221%
same,Prevotellaceae change in percent relative abundance,"[3]; ip, 50 mg/kg",−0.319%
same,Pseudomonadaceae change in percent relative abundance,"[3]; ip, 50 mg/kg",0.000%
same,Rhizobiaceae change in percent relative abundance,"[3]; ip, 50 mg/kg",0.000%
same,Rhodobacteraceae change in percent relative abundance,"[3]; ip, 50 mg/kg",0.000%
same,Rikenellaceae change in percent relative abundance,"[3]; ip, 50 mg/kg",−4.710%
same,Ruminococcaceae change in percent relative abundance,"[3]; ip, 50 mg/kg",1.486%
same,Sphingomonadaceae change in percent relative abundance,"[3]; ip, 50 mg/kg",0.000%
same,Spirochaetaceae change in percent relative abundance,"[3]; ip, 50 mg/kg",−0.074%
same,Spiroplasmataceae change in percent relative abundance,"[3]; ip, 50 mg/kg",−0.107%
same,Staphylococcaceae change in percent relative abundance,"[3]; ip, 50 mg/kg",0.004%
same,Streptococcaceae change in percent relative abundance,"[3]; ip, 50 mg/kg",2.055%
same,Thermoanaerobacteraceae change in percent relative abundance,"[3]; ip, 50 mg/kg",−0.018%
same,Veillonellaceae change in percent relative abundance,"[3]; ip, 50 mg/kg",0.000%
same,Verrucomicrobiaceae change in percent relative abundance,"[3]; ip, 50 mg/kg",−0.017%
same,Xanthomonadaceae change in percent relative abundance,"[3]; ip, 50 mg/kg",0.000%
same,Acholeplasmataceae change in percent relative abundance,"[3]; po, 50 mg/kg",0.005%
same,Candidatus saccharibacteria change in percent relative abundance,"[3]; po, 50 mg/kg",−0.043%
